The structures appear in SMILES notation.

Test [1] deals with T1, Integrin alpha-4 (Homo sapiens, UniProt P13612).
T1 sequence (P13612 whole entry): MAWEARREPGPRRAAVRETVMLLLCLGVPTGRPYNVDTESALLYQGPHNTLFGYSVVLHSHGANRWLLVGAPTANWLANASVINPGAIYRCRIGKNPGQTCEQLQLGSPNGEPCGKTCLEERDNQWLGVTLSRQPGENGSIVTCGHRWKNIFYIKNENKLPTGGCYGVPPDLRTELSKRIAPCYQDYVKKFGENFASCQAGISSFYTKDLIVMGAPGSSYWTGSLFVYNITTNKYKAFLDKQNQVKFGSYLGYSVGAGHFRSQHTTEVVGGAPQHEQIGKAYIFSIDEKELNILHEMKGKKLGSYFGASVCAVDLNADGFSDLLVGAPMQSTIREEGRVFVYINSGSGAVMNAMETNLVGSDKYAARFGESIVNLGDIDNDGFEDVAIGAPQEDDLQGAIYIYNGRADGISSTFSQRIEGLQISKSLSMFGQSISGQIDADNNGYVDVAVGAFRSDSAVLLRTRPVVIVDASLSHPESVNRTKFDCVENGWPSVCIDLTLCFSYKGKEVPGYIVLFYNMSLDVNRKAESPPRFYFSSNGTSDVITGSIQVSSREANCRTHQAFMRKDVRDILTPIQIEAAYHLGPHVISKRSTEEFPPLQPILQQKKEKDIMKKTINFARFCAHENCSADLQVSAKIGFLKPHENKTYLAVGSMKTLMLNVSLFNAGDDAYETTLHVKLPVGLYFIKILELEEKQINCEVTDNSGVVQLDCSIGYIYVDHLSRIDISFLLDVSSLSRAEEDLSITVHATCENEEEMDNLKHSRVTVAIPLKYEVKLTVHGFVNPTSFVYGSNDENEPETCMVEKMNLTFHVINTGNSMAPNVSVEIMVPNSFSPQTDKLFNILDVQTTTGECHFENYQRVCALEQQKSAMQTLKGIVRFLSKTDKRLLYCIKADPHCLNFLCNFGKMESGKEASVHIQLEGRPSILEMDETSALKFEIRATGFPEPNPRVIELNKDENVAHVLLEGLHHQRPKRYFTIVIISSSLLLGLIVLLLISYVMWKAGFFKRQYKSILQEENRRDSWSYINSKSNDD
As to the kind of experiment: Inhibition of VLA-4 binding to recombinant human VCAM using Solid phase assay.

The target in test [2] is T1, Integrin alpha-4. As to the kind of experiment: Inhibition of VLA-4 binding to recombinant human VCAM using Ramos cell assay. The test is classed as cell-based.

What is called IC50 is the concentration that inhibits the measured activity by half. As for `N[C@@H](Cc1ccc(O)cc1)C(=O)N[C@H]1CSSC[C@@H](C(=O)O)NC(=O)C2(CCCC2)CCCNC1=O`, the IC50 at Integrin alpha-4 [1] was found to be 19 nM; at Integrin alpha-4 [2], 480 nM.
In the case of `CC(=O)N[C@@H](Cc1ccc(O)cc1)C(=O)N[C@H]1CSSC[C@@H](C(=O)O)NC(=O)C2(CCCC2)CCNC1=O`, the IC50 at Integrin alpha-4 [1] turned out to be 0.7 nM; at Integrin alpha-4 [2], 12 nM.
As for `N[C@@H](Cc1ccc(O)cc1)C(=O)N[C@H]1CSSC[C@@H](C(=O)O)NC(=O)C2(CCCC2)CNC1=O`, the half-maximal inhibitory concentration (IC50) at Integrin alpha-4 [1] was 5 nM.
For the compound `CC1(C)CCNC(=O)[C@@H](NC(=O)[C@@H](N)Cc2ccc(O)cc2)CSSC[C@@H](C(=O)O)NC1=O`, the IC50 at Integrin alpha-4 [1] is 112 nM.
For `N[C@@H](Cc1ccc(O)cc1)C(=O)N[C@H]1CSSC[C@@H](C(=O)O)NC(=O)C2(CCCC2)CCNC1=O`, at Integrin alpha-4 [2], the 50% inhibitory concentration (IC50) is 24 nM.
For `CCC1(CC)CCNC(=O)[C@@H](NC(=O)[C@@H](N)Cc2ccc(O)cc2)CSSC[C@@H](C(=O)O)NC1=O`, the IC50 at Integrin alpha-4 [1] was 3.9 nM.

Source of the values: ChEMBL document CHEMBL1132893, “The design and synthesis of potent cyclic peptide VCAM-VLA-4 antagonists incorporating an achiral Asp-Pro mimetic” (Bioorg Med Chem Lett, 2000).
